In patent publication US7273882B2, “Aminoacetamide acyl guanidines as β-secretase inhibitors” (priority 2006, dated 2007) one finds IC50 data, which are given here for 15 compounds.

Each structure is given as a SMILES string.

As a reminder, the IC50 is the concentration at which inhibition is half-maximal.

In one assay the target is T1, BACE1 enzyme (Homo sapiens, UniProt P56817).
T1 construct: was derived from HEK293 cells; endogenous in cells; washed 48,000 x g pellet of the cell homogenate
T1 sequence (P56817 46-501): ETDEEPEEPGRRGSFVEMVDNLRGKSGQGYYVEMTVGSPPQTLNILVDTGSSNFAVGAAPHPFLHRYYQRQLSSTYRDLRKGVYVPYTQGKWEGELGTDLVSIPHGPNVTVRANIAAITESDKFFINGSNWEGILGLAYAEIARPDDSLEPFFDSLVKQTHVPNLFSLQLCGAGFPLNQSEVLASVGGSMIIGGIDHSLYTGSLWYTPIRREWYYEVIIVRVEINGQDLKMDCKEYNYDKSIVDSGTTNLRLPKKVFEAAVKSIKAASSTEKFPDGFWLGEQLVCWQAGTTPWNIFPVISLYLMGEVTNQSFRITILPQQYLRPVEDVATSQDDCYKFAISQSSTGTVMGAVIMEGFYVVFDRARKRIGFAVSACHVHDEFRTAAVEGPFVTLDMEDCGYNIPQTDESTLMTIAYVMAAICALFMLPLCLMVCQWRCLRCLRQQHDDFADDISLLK
The experiment in a line: Radioligand displacement (binding) assay with radiolabeled BACE inhibitor on HEK293-9B.A1 cell homogenate.
Details: not given
From the text: There are a number of methods by which inhibitors of the BACE enzyme can be identified experimentally. The enzyme can be obtained from membrane samples from natural tissues or cultured cells or can be expressed recombinantly in a host cell by well known methods of molecular biology. The whole enzyme or a portion thereof can be expressed, for example, in bacterial, insect or mammalian cells to obtain a catalytically active enzyme species. The enzymatic activity and/or ligand binding capability of the enzyme can be assessed within these membrane samples, or the enzyme can be purified to varying extents. As an illustrative example, the nucleic acid sequence encoding the pro and catalytic domains of human BACE can be appended on the 5′ end with an untranslated and signal sequence from the gene for acetylcholinesterase, and on the 3′ end with a sequence encoding a poly-histidine tag. This cDNA can then be expressed in Drosophila melanogaster S2 cells in which the signal and pro sequences of the transcribed/translated protein are removed by cellular proteases and the catalytic domain, appended by a C-terminal poly-histidine tag, is secreted out into the cellular medium. The enzyme can then be purified from the culture medium by nickel affinity chromatography by methods well known to those trained in the art [Mallender, W. et al., (2001) “Characterization of recombinant, soluble beta-secretase from an insect cell expression system.” Mol. Pharmacol. 59: 619-626]. Similar strategies for expressing and purifying various forms of BACE in bacterial, mammalian and other cell types would be known to one skilled in the art., A preferred method for determining the potency of a test compound in binding to the BACE enzyme is by monitoring the displacement of a suitable radioligand.
Radioligand displacement assays with a radiolabeled BACE inhibitor (WO 2004 013098, compound 3, where the methoxy group is substituted for C(^3H)3) were carried out using standard methods (Keen, M. (1999) in Receptor Binding Techniques (Walker, J. M. ed) p. 106 Humana Press, Totowa, N.J.). The HEK293-9B.A1 cell line, which overexpresses the BACE1 enzyme, was derived from HEK293 cells (Simmons, N. L. (1990) A cultured human renal epithelioid cell line responsive to vasoactive intestinal peptide. Exp. Physiol. 75:309-19.) by RAGE™ (Harrington, J. J. et al. (2001) Creation of genome-wide protein expression libraries using random activation of gene expression. Nat. Biotechnol. 19:440-5.; U.S. Pat. Nos. 6,410,266 and 6,361,972). T225 flask cultures of HEK293-9B.A1 were grown to 80% confluency in DMEM supplemented with 2 mM L-glutamine, 10 μg/ml penicillin, 10 μg/ml streptomycin, 3 μg/ml puromycin, 100 nM methotrexate, and 10% fetal bovine serum (Invitrogen, Carlsbad, Calif.), harvested, and resuspended at 2×10^8 cells per 10 ml of lysis buffer consisting of 50 mM HEPES pH 7.0 containing a protease inhibitor cocktail of AEBSF 104 μM, aprotinin 80 nM, leupeptin 2 μM, bestatin 4 μM, pepstatin A 1.5 μM, and E-64 1.4 μM (0.1% of protease inhibitor cocktail P8340, Sigma-Aldrich, St. Louis, Mo.) at 4° C. The resuspended cells were homogenized using a Polytron (Brinkman, Westbury, N.Y.) at setting 6 for 10 sec., then centrifuged at 48,000×g for 10 min. The resulting pellet was washed by repeating the resuspension, homogenization and centrifugation steps. The final pellet was resuspended in buffer at 4° C. to yield a total protein concentration of 5 mg/ml, then aliquots were frozen in liquid nitrogen for further storage at −70° C. Immediately before carrying out a binding assay, an aliquot of cell homogenate was thawed and diluted to a concentration of 100 μg/ml in assay buffer consisting of 50 mM HEPES pH 5.0 and 0.1% CHAPSO. […]
On the technique in general: Loss of bound radioactivity is the signal in a displacement assay; it reports binding, not function.
`Cc1noc(-c2ccccc2)c1C(=O)/N=C(\N)NCc1cc(Cl)c(N)c(Cl)c1` [Example 22] came in with an IC50 of 100 to 1000 nM. Still for that read-out and setting: then `COc1ccc(-c2n[nH]c(C)c2C(=O)N=C(N)NCc2cc(Cl)c(N)c(Cl)c2)cc1` [Example 132], with 100 to 1000 nM; and `COc1ccc(-c2nsc(C)c2C(=O)NC(N)=NCc2cc(C)c(NC(C)=O)c(Cl)c2)cc1` [Example 144], with less than 100 nM.

On to `COc1ccc(-c2noc(C)c2C(=O)/N=C(/N)NCc2cc(Cl)c(N)c(Br)c2)cc1` [Example 148, N-((3-Bromo-4-amino-5-chlorobenzylamino)(amino)methylene)-3-(4-methoxyphenyl)-5-methylisoxazole-4-carboxamide], for which the IC50 fell in the range of 100 to 1000 nM. The same measure, in the same setting: then `COc1ccc(-c2nsc(C)c2C(=O)/N=C(/N)NCc2cc(Cl)c(N)c(Cl)c2)cc1` [Example 149, N-((4-amino-3,5-dichlorobenzylamino)(amino)methylene)-3-(4-methoxyphenyl)-5-methylisothiazole-4-carboxamide], with less than 100 nM; and `COc1ccc(-c2nsc(C)c2C(=O)/N=C(/N)NCc2cc(Cl)c(N)c(Br)c2)cc1` [Example 150, N-((3-Bromo-4-amino-5-chlorobenzylamino)(amino)methylene)-3-(4-methoxyphenyl)-5-methylisothiazole-4-carboxamide], with less than 100 nM. Regarding `COC/C=C/c1cc(Cl)cc(CN/C(N)=N/C(=O)c2c(-c3ccc(OC)cc3)noc2C)c1` [Example 152, N-((3-chloro-5-((E)-3-methoxyprop-1-enyl)benzylamino)(amino)methylene)-3-(4-methoxyphenyl)-5-methylisoxazole-4-carboxamide], the IC50 was in the range of 100 to 1000 nM. The same measure, in the same setting: the figure for `COC/C=C/c1cc(CN/C(N)=N/C(=O)c2c(-c3ccc(OC)cc3)noc2C)cc(Cl)c1N` [Example 153, N-((4-amino-3-chloro-5-((E)-3-methoxyprop-1-enyl)benzylamino) (amino)methylene)-3-(4-methoxyphenyl)-5-methylisoxazole-4-carboxamide] is less than 100 nM.

`COC/C=C/c1cc(CN/C(N)=N/C(=O)c2c(-c3ccc(OC)cc3)nsc2C)cc(Cl)c1N` [Example 154, N-((4-amino-3-chloro-5-((E)-3-methoxyprop-1-enyl)benzylamino) (amino)methylene)-3-(4-methoxyphenyl)-5-methylisothiazole-4-carboxamide] registered an IC50 of less than 100 nM. On the same count and under the same terms, then `COc1ccc(-c2noc(C)c2C(=O)N=C(N)NCc2cc(Cl)cc(C=CCCO)c2)cc1` [Example 168], with 100 to 1000 nM; and `CCOC(=O)NCc1cc(Cl)cc(CN/C(N)=N/C(=O)c2c(-c3ccc(OC)cc3)noc2C)c1` [Example 203], with 100 to 1000 nM. Still for that read-out and setting: the figure for `COc1ccc(-c2nsc(C)c2C(=O)/N=C(\N)NCc2cc(Cl)cc(CNC(=O)/C=C/c3ccccc3)c2)cc1` [Example 237, N-(((E)-3-chloro-5-(cinnamamidomethyl)benzylamino)(amino)methylene)-3-(4-methoxyphenyl)-5-methylisothiazole-4-carboxamide] is less than 100 nM; for `COc1ccc(-c2nsc(C)c2C(=O)/N=C(\N)NCc2cc(Cl)c(NC(C)=O)c(Cl)c2)cc1` [Example 279, (E)-N-((4-acetamido-3,5-dichlorobenzylamino)(amino)methylene)-3-(4-methoxyphenyl)-5-methylisothiazole-4-carboxamide] it is less than 100 nM.

The assay is the same for the next values; noted with them: radioligand displacement, HEK293-9B.A1 cell homogenate overexpressing BACE1; read-out: Activity Rating (activity based on IC50 values).
With `COc1ccc(-c2noc(C)c2C(=O)/N=C(\N)NCc2cc(Cl)c(NC(=O)CN(C)C)c(Cl)c2)cc1` [Example 280, (E)-N-((3,5-dichloro-4-(2-(dimethylamino)acetamido)benzylamino)(amino)methylene)-3-(4-methoxyphenyl)-5-methylisoxazole-4-carboxamide], the IC50 was less than 100 nM. The same measure, in the same setting: the figure for `COc1ccc(-c2nsc(C)c2C(=O)/N=C(\N)NCc2cc(Cl)c(NC(=O)CN(C)C)c(Cl)c2)cc1` [Example 327] is less than 100 nM.
